Experimental data: ChEMBL document CHEMBL5380857, “Discovery of Potent, Selective, and Orally Bioavailable Small-Molecule Inhibitors of CDK8 for the Treatment of Cancer” (J Med Chem, 2023)
Active and inactive are the calls of the source. The rule behind the calls is not given here.

How the values were obtained:
[1] = Bioavailability in Sprague-Dawley rat at 5 mg/kg, po or 1 mg/kg, iv administered as single dose and measured for 24 hrs by LC-MS/MS analysis; assay type: ADME, organism-based; settings: in vivo
[2] = Volume of distribution in Beagle dog at 1 mg/kg, po or 0.5 mg/kg, iv administered as single dose and measured for 24 hrs by LC-MS/MS analysis; assay type: ADME, organism-based, Canis lupus familiaris; settings: in vivo
[3] = Clearance in Beagle dog assessed as liver blood flow at 1 mg/kg, po or 0.5 mg/kg, iv administered as single dose and measured for 24 hrs by LC-MS/MS analysis; assay type: ADME, organism-based, Canis lupus familiaris; settings: in vivo
[4] = molecular target: Voltage-gated inwardly rectifying potassium channel KCNH2 (Homo sapiens, UniProt Q12809); experiment: Inhibition of hERG expressed in CHO cells at -80 mV holding potential by whole cell patch clamp recording assay; assay type: toxicity, cell-based
[5] = tested on: MV4-11; experiment: Induction of cell cycle arrest in human MV4-11 cells assessed as reduction in accumulation of cells at S phase at 0.01 to 1 uM incubated for 48 hrs; assay type: functional, cell-based; settings: dose 0.01-1 µM
[6] = molecular target: Cytochrome P450 2C19 (Homo sapiens, UniProt P33261); experiment: Inhibition of CYP2C19 in human liver microsomes using S-mephenytoin as substrate assessed as reduction in substrate hydroxylation incubated for 10 mins in presence of NADPH by LC-MS/MS analysis; assay type: ADME, Microsome
[7] = tested on: MV4-11; experiment: Induction of cell cycle arrest in human MV4-11 cells assessed as accumulation of cells at G0/G1 phase at 0.01 to 1 uM incubated for 48 hrs; assay type: functional, cell-based; settings: dose 0.01-1 µM
[8] = tested on: MV4-11; experiment: Antitumor activity against human MV4-11 cells xenografted in BALB/c nude mouse assessed as tumor growth inhibition at 3 mg/kg, po bid administered by gavage for 17 days and measured 3 times per week by caliper method relative to control; assay type: functional; settings: MV4-11, 408 h, time 17 day, read-out: TGI
[9] = Metabolic stability in rat liver microsomes assessed as intrinsic clearance at 1 uM preincubated for 10 mins followed by NADPH addition and measured for 60 mins by LC-MS/MS analysis; assay type: ADME, Microsome; settings: read-out: CLH
[10] = Half life in Sprague-Dawley rat at 5 mg/kg, po or 1 mg/kg, iv administered as single dose and measured for 24 hrs by LC-MS/MS analysis; assay type: ADME, organism-based; settings: in vivo
[11] = Volume of distribution in CD-1 mouse at 5 mg/kg, po or 1 mg/kg, iv administered as single dose and measured for 24 hrs by LC-MS/MS analysis; assay type: ADME, organism-based; settings: in vivo
[12] = (§1) Antitumor activity against mouse LL2 cells implanted in C57BL/6J syngeneic mouse model assessed as tumor growth inhibition at 1 mg/kg, po administered via gavage twice daily for 14 days in presence of mPDL1 antibody administered twice per week and measured 3 times a week by caliper method relative to control; assay type: functional; settings: Lewis lung carcinoma, 336 h, time 14 day, read-out: TGI
[13] = Metabolic stability in mouse liver microsomes assessed as intrinsic clearance at 1 uM preincubated for 10 mins followed by NADPH addition and measured for 60 mins by LC-MS/MS analysis; assay type: ADME, Microsome; settings: read-out: CLH
[14] = Clearance in CD-1 mouse assessed as liver blood flow at 5 mg/kg, po or 1 mg/kg, iv administered as single dose and measured for 24 hrs by LC-MS/MS analysis; assay type: ADME, organism-based; settings: in vivo
[15] = molecular target: Cytochrome P450 2D6 (Homo sapiens, UniProt P10635); experiment: Inhibition of CYP2D6 in human liver microsomes using dextromethorphan as substrate assessed as reduction in substrate demethylation incubated for 10 mins in presence of NADPH by LC-MS/MS analysis; assay type: ADME, Microsome
[16] = Bioavailability in CD-1 mouse at 5 mg/kg, po or 1 mg/kg, iv administered as single dose and measured for 24 hrs by LC-MS/MS analysis; assay type: ADME, organism-based; settings: in vivo
[17] = tested on: MC-38; experiment: as §1, with “mouse MC-38” for “mouse LL2”, “at 3” for “at 1”, “gavage once” for “gavage twice”, “for 21” for “for 14”; assay type: functional; settings: MC-38, 504 h, time 21 day, read-out: TGI
[18] = Clearance in Sprague-Dawley rat assessed as liver blood flow at 5 mg/kg, po or 1 mg/kg, iv administered as single dose and measured for 24 hrs by LC-MS/MS analysis; assay type: ADME, organism-based; settings: in vivo
[19] = molecular target: Dual specificity protein kinase CLK2 (Homo sapiens, UniProt P49760); experiment: Binding affinity to CLK2 (unknown origin) assessed as dissociation constant by competitive binding assay
[20] = molecular target: T1, Cytochrome P450 1A2 (Homo sapiens, UniProt P05177); experiment: Inhibition of CYP1A2 in human liver microsomes using phenacetin as substrate assessed as reduction in substrate O-deethylation incubated for 10 mins in presence of NADPH by LC-MS/MS analysis; assay type: ADME, Microsome
T1 sequence (P05177 whole entry): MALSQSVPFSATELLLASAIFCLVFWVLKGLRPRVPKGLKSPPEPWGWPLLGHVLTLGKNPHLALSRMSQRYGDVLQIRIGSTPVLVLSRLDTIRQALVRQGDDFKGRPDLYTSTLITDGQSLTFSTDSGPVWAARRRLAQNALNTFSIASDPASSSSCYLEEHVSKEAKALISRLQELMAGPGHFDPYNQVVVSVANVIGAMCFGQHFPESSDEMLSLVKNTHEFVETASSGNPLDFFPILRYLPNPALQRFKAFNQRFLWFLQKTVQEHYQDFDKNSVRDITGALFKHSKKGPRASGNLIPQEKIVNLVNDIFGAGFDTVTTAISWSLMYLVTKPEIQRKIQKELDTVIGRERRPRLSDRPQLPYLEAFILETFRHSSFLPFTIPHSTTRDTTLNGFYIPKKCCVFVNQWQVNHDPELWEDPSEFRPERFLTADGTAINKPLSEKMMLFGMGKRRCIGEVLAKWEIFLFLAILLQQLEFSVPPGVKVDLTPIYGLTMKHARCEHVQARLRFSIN

[21] = Cytotoxicity against HEK293 cells; assay type: toxicity, cell-based; settings: human
[22] = molecular target: Dual specificity protein kinase CLK1 (Homo sapiens, UniProt P49759); experiment: Binding affinity to CLK1 (unknown origin) assessed as dissociation constant by competitive binding assay
[23] = Volume of distribution in Sprague-Dawley rat at 5 mg/kg, po or 1 mg/kg, iv administered as single dose and measured for 24 hrs by LC-MS/MS analysis; assay type: ADME, organism-based; settings: in vivo
[24] = tested on: MV4-11; experiment: Antitumor activity against human MV4-11 cells xenografted in BALB/c nude mouse assessed as inhibition of tumor growth administered orally by gavage twice per day for 17 days and measured 3 times per week by caliper method; assay type: functional, cell-based; settings: dose 1-10 mg/kg, route po, time 17.0 day
[25] = tested on: Mus musculus; experiment: In vivo inhibition of STAT1 phosphorylation at S727 residue in BALB/c nude mouse xenografted with human MV4-11 cells assessed as reduction in p-STAT1 protein level administered orally by gavage twice per day for 17 days and measured 24 hrs post last dose by Western blot analysis; assay type: functional, organism-based; settings: dose 1-10 mg/kg, route po, time 17.0 day
[26] = Bioavailability in Beagle dog at 1 mg/kg, po or 0.5 mg/kg, iv administered as single dose and measured for 24 hrs by LC-MS/MS analysis; assay type: ADME, organism-based, Canis lupus familiaris; settings: in vivo

Cytochrome P450 2C19, sequence (P33261 whole entry): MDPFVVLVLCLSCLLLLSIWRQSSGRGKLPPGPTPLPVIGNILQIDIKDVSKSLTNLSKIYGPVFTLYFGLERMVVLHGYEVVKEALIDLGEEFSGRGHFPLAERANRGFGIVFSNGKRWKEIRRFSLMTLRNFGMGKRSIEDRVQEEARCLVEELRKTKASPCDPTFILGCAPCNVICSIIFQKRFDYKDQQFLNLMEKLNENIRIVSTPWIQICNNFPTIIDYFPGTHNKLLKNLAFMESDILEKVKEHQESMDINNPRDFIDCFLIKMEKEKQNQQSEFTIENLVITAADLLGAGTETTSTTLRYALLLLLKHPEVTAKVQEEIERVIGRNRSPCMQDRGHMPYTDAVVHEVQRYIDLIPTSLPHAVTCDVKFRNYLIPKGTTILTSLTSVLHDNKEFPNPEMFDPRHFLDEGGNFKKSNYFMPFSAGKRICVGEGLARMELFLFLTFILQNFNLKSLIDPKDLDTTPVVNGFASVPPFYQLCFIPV
Voltage-gated inwardly rectifying potassium channel KCNH2, sequence (Q12809 whole entry): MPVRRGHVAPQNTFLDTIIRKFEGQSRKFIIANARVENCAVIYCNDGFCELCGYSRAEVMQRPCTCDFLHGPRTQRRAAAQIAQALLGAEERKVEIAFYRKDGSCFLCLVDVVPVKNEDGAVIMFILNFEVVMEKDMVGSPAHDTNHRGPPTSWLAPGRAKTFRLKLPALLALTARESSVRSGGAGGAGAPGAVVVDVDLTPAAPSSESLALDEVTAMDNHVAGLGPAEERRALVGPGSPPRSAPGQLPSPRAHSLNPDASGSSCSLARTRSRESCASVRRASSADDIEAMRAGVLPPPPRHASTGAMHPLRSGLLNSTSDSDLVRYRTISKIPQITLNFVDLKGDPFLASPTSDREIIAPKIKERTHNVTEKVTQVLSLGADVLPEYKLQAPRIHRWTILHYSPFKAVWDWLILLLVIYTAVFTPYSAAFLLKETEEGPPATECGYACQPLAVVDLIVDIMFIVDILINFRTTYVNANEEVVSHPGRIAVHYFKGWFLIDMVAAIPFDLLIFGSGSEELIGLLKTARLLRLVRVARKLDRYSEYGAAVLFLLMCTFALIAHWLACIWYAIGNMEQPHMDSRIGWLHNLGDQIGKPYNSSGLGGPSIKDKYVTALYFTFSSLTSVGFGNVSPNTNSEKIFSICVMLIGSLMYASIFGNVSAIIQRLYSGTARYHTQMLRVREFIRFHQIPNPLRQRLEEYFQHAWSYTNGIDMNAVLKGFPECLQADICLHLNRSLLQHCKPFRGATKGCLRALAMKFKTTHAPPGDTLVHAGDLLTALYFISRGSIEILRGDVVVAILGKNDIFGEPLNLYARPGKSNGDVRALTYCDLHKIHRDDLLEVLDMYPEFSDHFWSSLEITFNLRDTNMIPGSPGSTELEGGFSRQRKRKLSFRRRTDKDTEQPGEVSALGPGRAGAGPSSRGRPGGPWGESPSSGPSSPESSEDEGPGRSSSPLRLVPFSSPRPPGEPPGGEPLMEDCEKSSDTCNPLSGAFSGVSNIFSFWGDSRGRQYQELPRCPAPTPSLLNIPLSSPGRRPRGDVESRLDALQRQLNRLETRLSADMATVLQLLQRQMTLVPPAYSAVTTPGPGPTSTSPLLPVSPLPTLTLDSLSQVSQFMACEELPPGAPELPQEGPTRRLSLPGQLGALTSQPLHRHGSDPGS
Cytochrome P450 2D6, sequence (P10635 whole entry): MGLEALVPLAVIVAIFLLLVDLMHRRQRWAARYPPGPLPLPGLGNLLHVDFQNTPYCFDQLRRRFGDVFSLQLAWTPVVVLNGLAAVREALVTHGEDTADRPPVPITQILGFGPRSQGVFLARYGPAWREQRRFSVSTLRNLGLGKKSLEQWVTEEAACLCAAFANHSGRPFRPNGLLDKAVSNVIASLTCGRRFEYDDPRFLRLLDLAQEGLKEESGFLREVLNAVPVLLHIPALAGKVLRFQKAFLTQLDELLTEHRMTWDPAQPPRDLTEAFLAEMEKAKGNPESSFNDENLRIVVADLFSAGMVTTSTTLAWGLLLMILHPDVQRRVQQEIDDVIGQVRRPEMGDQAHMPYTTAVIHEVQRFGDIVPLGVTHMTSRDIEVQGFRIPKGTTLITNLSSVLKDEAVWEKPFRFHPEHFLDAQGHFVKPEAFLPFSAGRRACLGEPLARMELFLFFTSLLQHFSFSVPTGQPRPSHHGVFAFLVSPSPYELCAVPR
Dual specificity protein kinase CLK2, sequence (P49760 whole entry): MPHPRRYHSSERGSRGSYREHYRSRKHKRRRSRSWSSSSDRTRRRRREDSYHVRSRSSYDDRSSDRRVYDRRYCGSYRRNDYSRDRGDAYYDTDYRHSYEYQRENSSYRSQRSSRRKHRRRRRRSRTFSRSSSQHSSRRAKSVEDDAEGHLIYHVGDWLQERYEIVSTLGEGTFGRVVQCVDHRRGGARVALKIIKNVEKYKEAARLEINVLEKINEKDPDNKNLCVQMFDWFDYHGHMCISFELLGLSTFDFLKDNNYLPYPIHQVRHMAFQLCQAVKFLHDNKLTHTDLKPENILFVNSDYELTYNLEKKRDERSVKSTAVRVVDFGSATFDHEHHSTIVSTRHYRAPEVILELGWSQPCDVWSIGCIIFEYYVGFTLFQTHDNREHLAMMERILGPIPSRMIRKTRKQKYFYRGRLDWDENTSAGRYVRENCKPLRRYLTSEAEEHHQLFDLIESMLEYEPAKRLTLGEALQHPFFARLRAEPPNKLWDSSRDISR
Dual specificity protein kinase CLK1, sequence (P49759 whole entry): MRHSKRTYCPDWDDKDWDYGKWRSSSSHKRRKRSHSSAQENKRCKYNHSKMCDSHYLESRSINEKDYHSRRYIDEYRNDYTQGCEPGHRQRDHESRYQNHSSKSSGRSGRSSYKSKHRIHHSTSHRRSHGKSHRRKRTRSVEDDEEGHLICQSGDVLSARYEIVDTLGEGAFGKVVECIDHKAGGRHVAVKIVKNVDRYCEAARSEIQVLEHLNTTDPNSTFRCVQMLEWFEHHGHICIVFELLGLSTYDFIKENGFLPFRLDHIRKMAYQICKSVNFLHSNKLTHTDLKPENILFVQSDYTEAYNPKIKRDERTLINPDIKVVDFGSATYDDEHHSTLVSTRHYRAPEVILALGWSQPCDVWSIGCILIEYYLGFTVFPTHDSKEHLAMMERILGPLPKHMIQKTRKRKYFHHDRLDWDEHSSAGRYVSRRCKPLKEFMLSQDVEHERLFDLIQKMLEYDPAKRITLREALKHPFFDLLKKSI

bioavailability [1]: 97.7%
Vd [2]: 0.5 L/kg
LBF [3]: 7.2%
IC50 [6]: 30.8 µM
CLint scaled at 1 µM [9]: 29.9 mL/min/kg
half-life [10]: 3.9 h
Vd [11]: 0.4 L/kg
CLint scaled at 1 µM [13]: 148 mL/min/kg
LBF [14]: 1.4%
IC50 [15]: 44.2 µM
bioavailability [16]: 87.4%
LBF [18]: 27%
Kd [19]: 0.068 µM
IC50 [20]: > 50 µM
Kd [22]: 0.089 µM
Vd [23]: 1.2 L/kg
bioavailability [26]: 102%
Structure (SMILES): Cc1n[nH]c2ccc(-c3nnc(C)n3Cc3ccc(C(F)(F)F)cc3)cc12
IC50 [4]: > 30 µM
Activity [5]: Active
Activity [7]: Active
inhibition in vivo at 3 mg/kg [8]: 84.8%
inhibition in vivo at 1 mg/kg [12]: 46.1%
inhibition in vivo at 3 mg/kg [17]: 80.4%
EC50 [21]: > 10 µM
inhibition [24]: Dose-Dependent Effect
inhibition [25]: Dose-Dependent Effect
